# In patent US20120065165A1, “COMPOSITIONS AND METHODS OF TREATING ENDOTHELIAL DISORDERS” (ARGINETIX, INC, priority 2008, published 2012):
# Columns and labels:
# [1] = test system: old rat aorta; assay: ROS production in aortic rings (DHE fluorescence); type: cell-based; settings: aged rat aortas
# Source text: ABH improves endothelial function by inhibiting arginase and consequently increasing NO production (by increasing L-arginine availability to eNOS) and decreasing levels of ROS (by preventing eNOS uncoupling). […] Aortic rings were dissected and pinned down, endothelial side up, on a silastic coated culture dish, and then exposed to either the NO-sensitive dye DAF, or the O2-sensitive dye DHE. Since the interaction of NO or ROS with its specific dye is cumulative, the rate of production of each species is proportional to the slope of the fluorescence emitted from the dye as measured using epifluorescence microscopy. […] SNP endothelial-independent NO donor was included as a control (Santhanam et al 2007).
# This supports the hypothesis that arginase inhibition results in increased vascular NO production. A corollary of this effect is a decrease in ROS production by re-coupling eNOS to NO production. […] This resulted from deranged NOS activity (uncoupled NOS), since ROS levels could be reduced using the NOS-inhibitor nitro-L-arginine methyl ester (FIG. 6C). […] Similar techniques are used to examine whether ABH can restore NO production and decrease ROS production in vascular endothelial cells and corporal tissue from type 2 diabetic rats.
# [2] = test system: tissue explants from diabetic ZDF rats; assay: Ex vivo ABH treatment of tissue explants from type 2 diabetic ZDF rats (Example 6); type: cell-based, rat; settings: vs ZLC rats
# Source text: Biochemical and functional parameters of endothelial functions in a model of type 2 diabetes (Zucker Diabetic Fatty (ZDF) Rats) and in a control rat strain (Zucker Lean Control (ZLC) rat), are used to investigate the ex vivo effectiveness of ABH in improving these parameters. Vascular arginase activity and its role in the development of diabetic endothelial pathology have been previously characterized in models of Type 1 diabetes (Jelodar, et al., 2007 J. Reprod. Dev. 53: 317-321; Romero, et al., 2008 Circ. Res. 102: 95-102). […] Vascular endothelial function is measured using organ chambers in isolated rat arterial rings and in strips of erectile tissue collected from each rat strain.
# ZDF rats have a mutation in the gene for the leptin receptor. […] Arginase I and II and eNOS mRNA and protein concentrations in these tissues are determined by RT-PCR and Western blot, respectively. Arginase activity is measured, as described in Example 4, by homogenizing the rat vessels in lysis buffer, removing cellular debris by centrifugation, and monitoring the hydrolysis of L-arginine using calorimetric determination of urea after the addition of isonitrosopropiophenone. […] The cellular location of arginase in this model of type 2 diabetes is determined by comparing the results of RT-PCR, Western blot, and arginase activity assays in endothelial-intact and endothelial-denuded aortic rings. […]
# [3] = test system: arginase I; settings: tissue extracts from diabetic corpus cavernosa; cited from earlier work
smiles,measurement,setting,value
"N[C@@H](CCCCB(O)O)C(=O)O [ABH, 2(S)-Amino-6-boronohexanoic acid]",ROS production,[1],significantly reduced
same,"biochemical (arginase activity, NO, ROS) and functional (vascular endothelial, erectile) parameters",[2],return these biochemical and functional parameters to values that are similar to those of ZLC rats
same,levels of cGMP,[3],increase levels of cGMP
